Values joined by “and” are separate entries in the source; they are usually repeats but may differ in a detail not shown here. Equal entries are not always repeated.
Tests used:
[1] = Pharmacokinetics, plasma AMG 900 by LC-MS/MS after multiple oral administrations; type: in vivo; conditions: human
patients with AML [2] = test: Safety and tolerability; type: in vivo
patients with AML [3] = test: Efficacy: objective response by Cheson response criteria; type: in vivo, human
[4] = tested on: phosphorylated histone H3 (pHH3) in peripheral blood leukemic blasts; test: Pharmacodynamics: flow cytometric pHH3 assay in whole blood; type: in vivo, human; conditions: as early as 1 hour after treatment; regardless of dosing schedule; transient
AML blasts = conditions: cited from earlier work
[5] = Total, all doses and schedules (n = 35)

Structure (SMILES): Cc1csc(-c2nnc(Nc3ccc(Oc4ncccc4-c4ccnc(N)n4)cc3)c3ccccc23)c1 [AMG 900, N-(4-(3-(2-aminopyrimidin-4-yl)pyridin-2-yloxy)phenyl)-4-(4-methylthiophen-2-yl)p hthalazin-1-amine]
- AUC(0-t) ([1]; 15 mg): 1380 ng·h/mL
- Cmax ([1]; 15 mg): 501 ng/mL
- AUC(0-t) ([1]; 25 mg): 2740 ng·h/mL
- Cmax ([1]; 25 mg): 951 ng/mL
- AUC(0-t) ([1]; 40 mg): 4360 ng·h/mL
- Cmax ([1]; 40 mg): 1600 ng/mL
- AUC(0-t) ([1]; 60 mg): 5620 ng·h/mL
- Cmax ([1]; 60 mg): 1890 ng/mL
- AUC(0-t) ([1]; 80 mg): 3210 ng·h/mL
- Cmax ([1]; 80 mg): 1430 ng/mL
- AUC(0-t) ([1]; 100 mg): 10200 ng·h/mL
- Cmax ([1]; 100 mg): 3670 ng/mL
- Treatment-related adverse events by grade: Fatal (patients with AML [2]; 15 mg, 4 days on/10 days off (n = 4)): 0 (0) n (%)
- Treatment-related adverse events by grade: Fatal (patients with AML [2]; 25 mg, 4 days on/10 days off (n = 3)): 0 (0) n (%)
- Treatment-related adverse events by grade: Fatal (patients with AML [2]; 30 mg, 7 days on/7 days off (n = 3)): 0 (0) n (%)
- Treatment-related adverse events by grade: Fatal (patients with AML [2]; 40 mg, 4 days on/10 days off (n = 7)): 1 (14) n (%)
- Treatment-related adverse events by grade: Fatal (patients with AML [2]; 40 mg, 7 days on/7 days off (n = 4)): 0 (0) n (%)
- Treatment-related adverse events by grade: Fatal (patients with AML [2]; 50 mg, 7 days on/7 days off (n = 6)): 1 (17) n (%)
- Treatment-related adverse events by grade: Fatal (patients with AML [2]; 60 mg, 4 days on/10 days off (n = 4)): 0 (0) n (%)
- Treatment-related adverse events by grade: Fatal (patients with AML [2]; 80 mg, 4 days on/10 days off (n = 3)): 0 (0) n (%)
- Treatment-related adverse events by grade: Fatal (patients with AML [2]; 100 mg, 4 days on/10 days off (n = 1)): 0 (0) n (%)
- Grade ≥ 3 treatment-related adverse events: Device-related infection (patients with AML [2]; [5]): 2 (6) n (%)
- Grade ≥ 3 treatment-related adverse events: Septic shock (patients with AML [2]; [5]): 2 (6) n (%)
- Treatment-related adverse events by grade: Fatal (patients with AML [2]; [5]): 2 (6) n (%)
- Treatment-related adverse events, all grades: Mucosal inflammation (patients with AML [2]; [5]): 4 (11) n (%)
- Treatment-related adverse events, all grades: Nausea (patients with AML [2]; [5]): 11 (31) n (%)
- Treatment-related adverse events, all grades: Rash (patients with AML [2]; [5]): 4 (11) n (%)
- Treatment-related adverse events, all grades: Vomiting (patients with AML [2]; [5]): 6 (17) n (%)
- maximum tolerated dose (MTD) (patients with AML [2]; either dosing schedule): not formally reached
- Any treatment-related adverse events (patients with AML [2]; human, in vivo): 30 (86) n (%)
- Grade ≥ 3 treatment-related adverse events: Diarrhea (patients with AML [2]; human, in vivo): 2 (6) n (%)
- Grade ≥ 3 treatment-related adverse events: Febrile neutropenia (patients with AML [2]; human, in vivo): 10 (29) n (%)
- Grade ≥ 3 treatment-related adverse events: Pancytopenia (patients with AML [2]; human, in vivo): 2 (6) n (%)
- Grade ≥ 3 treatment-related adverse events: Thrombocytopenia (patients with AML [2]; human, in vivo): 2 (6) n (%)
- Treatment-related adverse events by grade: Grade ≥ 3 (patients with AML [2]; human, in vivo): 16 (46) n (%)
- Treatment-related adverse events by grade: Grade ≥ 4 (patients with AML [2]; human, in vivo): 5 (14) n (%)
- Treatment-related adverse events, all grades: Alopecia (patients with AML [2]; human, in vivo): 5 (14) n (%)
- Treatment-related adverse events, all grades: Diarrhea (patients with AML [2]; human, in vivo): 10 (29) n (%)
- Treatment-related adverse events, all grades: Dyspnea (patients with AML [2]; human, in vivo): 4 (11) n (%)
- Treatment-related adverse events, all grades: Epistaxis (patients with AML [2]; human, in vivo): 4 (11) n (%)
- Treatment-related adverse events, all grades: Fatigue (patients with AML [2]; human, in vivo): 8 (23) n (%)
- Treatment-related adverse events, all grades: Febrile neutropenia (patients with AML [2]; human, in vivo): 10 (29) n (%)
- median (range) duration of febrile neutropenia (patients with AML [2]; human, in vivo): 8 (1, 45) days
- serious treatment-related AE: device-related infection (patients with AML [2]; human, in vivo): 6%
- serious treatment-related AE: febrile neutropenia (patients with AML [2]; human, in vivo): 26%
- serious treatment-related AE: septic shock (patients with AML [2]; human, in vivo): 6%
- treatment-related AE, any grade: alopecia (patients with AML [2]; human, in vivo): 14%
- treatment-related AE, any grade: nausea (patients with AML [2]; human, in vivo): 31%
- treatment-related AE, any grade: vomiting (patients with AML [2]; human, in vivo): 17%
- tolerability of highest dose evaluated (patients with AML [2]; in vivo): tolerated
- patients with serious treatment-related AEs (patients with AML [2]; overall, 11 patients): 31%
- patients who discontinued AMG 900 treatment due to AEs (patients with AML [2]; overall, five patients): 14%
- patients who died during the study (patients with AML [2]; overall, nine patients, two deaths considered treatment-related): 26%
- objective response rate (patients with AML [3]; all patients, any dose, either schedule, 80% confidence interval: 3%, 18%): 9%
- duration of response (patients with AML [3]; individual values of the three responders, 1.5 months is a censored observation): 3 months and 1.5 months and < 1 months
- inhibition of pHH3 expression in whole blood [4]: clear inhibition of pHH3 expression

Structure (SMILES): COc1cc(Nc2ncc3c(n2)-c2ccc(Cl)cc2C(c2c(F)cccc2OC)=NC3)ccc1C(=O)O [MLN8237]
- apoptosis of AML blasts (AML blasts): induced apoptosis
- proliferation of AML blasts (AML blasts): inhibited proliferation

— PMC5925751 (American journal of hematology, 2017)
